Measured values: patent publication US7632971B2, “Method of crystallization of bicalutamide” (Sumitomo Chemical Company, Limited, priority 2004, dated 2009)

Tests used:
[1] = Particle size distribution by laser diffraction (Mastersizer 2000); format: physicochemical
Experimental: In the invention, Dpn is a unit referring to a particle size of crystal, and n is a value covering from 1 to 100. For example, Dp10 is defined as a diameter of the particle where particles are accumulated from the one having a smaller size and reach to the accumulated particle volume of 10%.
Add 1000 mL of water to 5 g of Triton X-100, mix well. Add 0.1 g of bicalutamide and sonicate for 15 minutes, the filter using 0.45 μm membrane filter and use this solution as the dispersant. Rinse the dispersion unit and the measurement instrument with the dispersant and replace it in the instruments with the fresh one, then measure background. After weighing, suspend about 0.05 g of bicalutamide crystals in the 20 ml of dispersant and sonicate for 5 minutes, and make up with the dispersant to 100 mL. Redisperse this suspension with a pipet and pour this sample into the dispersion unit so that an obscuration is 10.0 to 20.0%. After the stabilizing period of 12 minutes, start the measurement under the following condition. Determine 10% diameter, 50% diameter, and 90% diameter according to an integrated distribution curve to be Dp10, Dp50 and Dp90, respectively.
• Instrument model: Laser diffraction particle size analyzer Mastersizer 2000 (Malvern) • Dispersion unit: Hydro2000S • Stirrer speed of dispersion unit: 2300 rpm • Particle Refraction Index of sample: 1.670 Absorption: 0.001 • Dispersant Refraction Index: 1.330 • Analysis model: General purpose • Calculation sensitivity: Enhanced • Particle shape: Irregular • Size range: 0.020-2000.000 μm • Measurement integration period: 12 seconds • Backgroupd integration period: 12 seconds (Specific Surface Area)
With using the above-mentioned laser diffraction particle size distribution analyzer (Mastersizer 2000 (Malvern)), a particle size distribution was measured under the same conditions mentioned above.

[2] = Specific surface area by nitrogen gas absorption (BET equation, COULTER SA3100); format: physicochemical
Experimental: The specific surface area in the invention is defined as a surface area per 1 g of particles, and represented by a value measured by the following method.
A sample is deaerated overnight in a vacuum dryer at 40° C. as a pre-treatment before being subjected to a measurement. The measurement is conducted as follows: a given amount of an absorbing gas (nitrogen gas) is absorbed by a sample, the values of a relative pressure (P/PO) and an absorbed gas volume are determined in each absorption step, and then a specific surface area is calculated according to the BET equation using the values. COULTER™ SA3100™ Series Surface Area and Pore size Analyzer is used as a measurement device. After measuring the sample mentioned above, the specific surface area at around the relative pressure of 0.05 to 0.2 is calculated.
Furthermore, the specific surface area of the crystals obtained by one time milling was measured with the COULTER™ SA3100™ Series Surface Area and Pore size Analyzer mentioned above under the same conditions mentioned above.

[3] = crystals as obtained by crystallization, not milled
[4] = crystals obtained by one time milling (spiral jet-mill 50AS)
[5] = crystals obtained by two times milling (CT-401 ATOMIZER)

Row | Dp10 (particle size) [1, 3] | Dp50 (particle size) [1, 3] | Dp90 (particle size) [1, 3] | specific surface area ([2]; crystals obtained by one time milling, relative pressure 0.05 to 0.2) | Dp10 (particle size) [1, 4] | Dp50 (particle size) [1, 4] | Dp90 (particle size) [1, 4] | Dp10 (particle size) [1, 5] | Dp50 (particle size) [1, 5] | Dp90 (particle size) [1, 5] | specific surface area [2, 3] | Compound
1 | 45.6 μm | 90.7 μm | 177.6 μm | – | – | – | – | – | – | – | – | CC(O)(CS(=O)(=O)c1ccc(F)cc1)C(=O)Nc1ccc(C#N)c(C(F)(F)F)c1 (centres unmarked) [bicalutamide]
2 | 5.3 μm | 14.5 μm | 30.6 μm | 1.8 m^2/g | 1.8 μm | 4.2 μm | 10.5 μm | – | – | – | – | CC(O)(CS(=O)(=O)c1ccc(F)cc1)C(=O)Nc1ccc(C#N)c(C(F)(F)F)c1 (centres unmarked) [Example 1, bicalutamide]
3 | 45.6 μm | 90.7 μm | 177.6 μm | – | – | – | – | 3.1 μm | 15.9 μm | 57.8 μm | – | CC(O)(CS(=O)(=O)c1ccc(F)cc1)C(=O)Nc1ccc(C#N)c(C(F)(F)F)c1 (centres unmarked) [Comparative Example 1, bicalutamide]
4 | 39.5 μm | 119.6 μm | 273.1 μm | – | – | – | – | – | – | – | 0.2 m^2/g | CC(O)(CS(=O)(=O)c1ccc(F)cc1)C(=O)Nc1ccc(C#N)c(C(F)(F)F)c1 (centres unmarked) [Comparative Example 2, bicalutamide]
